What was measured:
HSV-1 = test: Antiviral activity, HSV-1 in Vero cells, plaque method; assay type: cell-based; settings: 90% inhibition of plaque formation
Method: An Assay Method for Antiviral Activity These complementary assay methods examine the capacity of a compound to inhibit the generation of new viruses and to inhibit the toxicity of the compound against the host cell. Toxicity indirectly decreases the generation of viruses. Thus, it is important to simultaneously conduct both assays in order to directly compare the results. The Vero cells were sown on a 96-well plate and then cultured overnight. The culture supernatant was removed, and 100 μl of 2% FBS-DMEM containing 50,000 plaque-forming units (hereinafter abbreviated as “pfu”) of HSV-1 was added. A viral solution was removed and 200 μl of 2% FBS-DMEM comprising a test compound was added. In this case, a substance to which 2% FBS-DMEM not comprising any test compound had been added was determined as a control. These infected cells were incubated in the presence of 5% CO2 at 37° C. for 20 hours, and the medium was once allowed to freeze at −80° C. The culture solution was dissolved, and the amount of viruses in the culture solution was assayed by the plaque method. The concentration of the test compound when it inhibited 90% of plaque formation relative to the control was determined to be EC 90.

HSV-1 protease = biological target: T1, HSV-1 protease (Human herpesvirus 1, UniProt P10210); test: Enzymatic assay for HSV-1 protease (assembly) inhibitor, fluorescence polarization; assay type: biochemical; settings: read-out: HSV-1 Enzyme inhibition IC50
T1 construct: 6xHis (N); made in house; host or cells: baculovirus expression system
T1 sequence (P10210 1-247): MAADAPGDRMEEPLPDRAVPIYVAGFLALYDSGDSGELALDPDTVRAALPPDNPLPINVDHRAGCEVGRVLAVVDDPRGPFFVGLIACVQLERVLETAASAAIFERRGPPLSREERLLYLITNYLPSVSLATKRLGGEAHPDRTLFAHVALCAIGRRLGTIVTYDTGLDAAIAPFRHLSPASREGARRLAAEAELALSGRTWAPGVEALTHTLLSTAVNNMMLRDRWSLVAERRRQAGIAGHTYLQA
Method: An enzymatic assay method for an HSV-1 protease (assembly) inhibitor
The activity of an assembly protease was determined by fluorescence polarization. Biotin-gamma-amino butyrate-[…]-DTAF was used as a fluorescent substrate in accordance with an HSV-1 release and cleavage site. […] Changes in the sizes of fluorescent substrate molecules that increased with the use of avidin as a reaction terminator were assayed by fluorescence polarization.
The test compound was dissolved in DMF, and the resultant was diluted 5-fold with an assay buffer. 6.5 μl thereof was added to wells of a 96-well plate (a U-bottomed 96-well plate, Coster) that had previously been blocked with a blocking solution (10 mM Tris-HCl (pH 8.0), 150 mM sodium chloride, 0.05% Tween 20, 1 mg/ml of BSA). The enzyme was diluted to 21.3 μg/ml with an assay buffer (1M sodium citrate, 50 mM sodium phosphate (pH 7.4), 100 mM sodium chloride, 20% glycerol, 2 mM TCEP), and 48.5 μl of the resultant was added to each well. The plate was incubated at room temperature for 30 minutes, and 10 μl of 62.5 μg/ml substrate solution was then added to each well. The plate was incubated at room temperature for 60 minutes, and 50 μl of 2 mg/ml avidin phosphate buffer solution (50 mM sodium phosphate, 100 mM sodium chloride (pH 7.4)) was added to each well. The activity was determined in comparison with a compound without protease inhibitor using a microplate reader for fluorescence polarization.
HSV-1 protease was purified from a vaculovirus that had expressed a DNA construct encoding the reading frame for HSV-1UL26. This construct had further encoded 6 histidine residues at the amino terminus of the protease. These additional histidine residues impart affinity ligands purified by nickel-nitriloacetic acid-agarose (Qiagen). The purified protease was stored as a stock solution for a 20 mM HEPES buffer (pH 8.5, containing 20% v/v glycerin). This stock solution was diluted with an assay buffer and then used in the enzyme reaction.
In accordance with the cleavage specificity of the HSV-1 protease at the “release site” of the assembled protein, a specific substrate was synthesized (Diianni et al., J. Biol. Chem. 268, 2048 (1993)). This assembly protein-release site had the sequence • HTYLQA*SEKFKMW • , and the substrate used was biotin-gamma-amino butyrate-HTYLQA*SERFRIK-DTAF. This is a standard method for peptide synthesis, for example, as in the a method described in “The Practice of Peptide Synthesis” (Bodansky and Bodansky (1984)). The product was stored as a 2.5 mg/ml stock solution in DMF. The resultant was diluted to 62.5 μg/ml with a phosphate buffer (50 mM sodium phosphate, 100 mM sodium chloride, (pH 7.4)) immediately before its use.
An assay buffer (1M sodium citrate, 50 mM sodium phosphate (pH 7.4), 100 mM sodium chloride, 20% glycerol, 2 mM TCEP) was used to dilute a stock solution for the enzyme and that for the inhibitor.

[1] = Human alphaherpesvirus 1, 20 hours

| Structure (SMILES) | EC90 (HSV-1; [1]) | IC50 (HSV-1 protease) | EC90 (HSV-1; 20 hours) |
| --- | --- | --- | --- |
| Cc1c(NC(=O)CCNC(=O)OC(C)(C)C)ccc2nc(NC(C)(C)C(=O)N(C)CCc3ccccn3)oc(=O)c12 [Compound No.201, [2-(5-methyl-2-{1-methyl-1-[methyl-(2-pyridin-2-yl-ethyl)-carbamoyl]-ethylamino}-4-oxo-4H-benzo[d][1,3]oxazin-6-ylcarbamoyl)-ethyl]-carbamic Acid Tert-Butyl Ester] | > 12500 nM | 1100 nM | – |
| CCC(CC)C(=O)Nc1ccc2nc(NC(C)(C)C(=O)N(C)CCc3ccccn3)oc(=O)c2c1C [Compound No.197, 2-Ethyl-N-(5-methyl-2-{1-methyl-1-[methyl-(2-pyridin-2-yl-ethyl)-carbamoyl]-ethylamino}-4-oxo-4H-benzo[d][1,3]oxazin-6-yl)-butylamide] | – | 7200 nM | ≥ 12500 nM |
| Cc1c(NC(=O)OC(C)(C)C)ccc2nc(NC(C)(C)C(=O)N(C)CCc3ccccc3)oc(=O)c12 [compound 229, {5-Methyl-2-[1-methyl-1-(methyl-phenethyl-carbamoyl)-ethylamino]-4-oxo-4H-benzo[d][1,3]oxazin-6-yl}-carbamic acid tert-butyl ester, reference compound] | 6600 nM | 12200 nM | – |
| Cc1c(NC(=O)OC(C)(C)C)ccc2nc(NC3(C(=O)N(C)Cc4cccnc4)CC3)oc(=O)c12 [Compound No.118, {5-Methyl-2-[1-(methyl-pyridin-3-ylmethyl-carbamoyl)-cyclopropylamino]-4-oxo-4H-benzo[d][1,3]oxazin-6-yl}-carbamic acid tert-butyl ester] | > 12500 nM | 2300 nM | – |
| Cc1c(NC(=O)CCNC(=O)OC(C)(C)C)ccc2nc(N[C@@H](C)C(=O)N(C)CCc3ccccn3)oc(=O)c12 [Compound No.205, [2-(5-Methyl-2-{1S-[methyl-(2-pyridin-2-yl-ethyl)-carbamoyl]-ethylamino}-4-oxo-4H-benzo[d][1,3]oxazin-6-ylcarbamoyl)-ethyl]-carbamic acid tert-butyl ester] | > 20000 nM | 2500 nM | – |
| Cc1c(NC(=O)CCNC(=O)c2cccs2)ccc2nc(N[C@@H](C)C(=O)N(C)CCc3ccccn3)oc(=O)c12 [Compound No.215, Thiophene-2-carboxylic acid [2-(5-methyl-2-{1S-[methyl-(2-pyridin-2-yl-ethyl)-carbamoyl]-ethylamino}-4-oxo-4H-benzo[d][1,3]oxazin-6-ylcarbamoyl)-ethyl]-amide] | > 12500 nM | 3200 nM | – |
| Cc1c(NC(=O)c2cccs2)ccc2nc(N[C@@H](C)C(=O)N(C)CCc3ccccn3)oc(=O)c12 [Compound No.135, Thiophene-2-carboxylic acid (5-methyl-2-{1S-[methyl-(2-pyridin-2-yl-ethyl)-carbamoyl]-ethylamino}-4-oxo-4H-benzo[d][1,3]oxazin-6-yl)-amide] | > 12500 nM | 1300 nM | – |
| Cc1c(NC(=O)CCNC(=O)OCc2ccccc2)ccc2nc(N[C@@H](C)C(=O)N(C)CCc3ccccn3)oc(=O)c12 [Compound No.206, [2-(5-Methyl-2-{1S-[methyl-(2-pyridin-2-yl-ethyl)-carbamoyl]-ethylamino}-4-oxo-4H-benzo[d][1,3]oxazin-6-ylcarbamoyl)-ethyl]-carbamic acid benzyl ester] | > 12500 nM | 1100 nM | – |

Compounds with a lower IC50 (HSV-1 protease), results first:

| EC90 (HSV-1; [1]) | IC50 (HSV-1 protease) | Structure (SMILES) | EC90 (HSV-1; 20 hours) |
| --- | --- | --- | --- |
| 9600 nM | 600 nM | Cc1c(NC(=O)OC(C)(C)C)ccc2nc(NC3(C(=O)N(C)CCc4ccccn4)CCCC3)oc(=O)c12 [Compound No.123, (5-Methyl-2-{1-[methyl-(2-pyridin-2-yl-ethyl)-carbamoyl]-cyclopentylamino}-4-oxo-4H-benzo[d][1,3]oxazin-6-yl)-carbamic acid tert-butyl ester] | – |
| > 12500 nM | 700 nM | Cc1c(NC(=O)CCNC(=O)c2ccc(C(F)(F)F)cc2)ccc2nc(NC(C)(C)C(=O)N(C)CCc3ccccn3)oc(=O)c12 [Compound No.210, N-[2-(5-Methyl-2-{1-methyl-1-[methyl-(2-pyridin-2-yl-ethyl)-carbamoyl]-ethylamino}-4-oxo-4H-benzo[d][1,3]oxazin-6-ylcarbamoyl)-ethyl]-4-trifluoromethyl-benzamide] | – |
| 10100 nM | 400 nM | Cc1c(NC(=O)OC(C)(C)C)ccc2nc(NC3(C(=O)N(C)CCc4ccncc4)CCCC3)oc(=O)c12 [Compound No.128, (5-Methyl-2-{1-[methyl-(2-pyridin-4-yl-ethyl)-carbamoyl]-cyclopentylamino}-4-oxo-4H-benzo[d][1,3]oxazin-6-yl)-carbamic acid tert-butyl ester] | – |
| > 12500 nM | 400 nM | Cc1c(NC(=O)CCCNC(=O)c2cccs2)ccc2nc(N[C@@H](C)C(=O)N(C)CCc3ccccn3)oc(=O)c12 [Compound No.218, Thiophene-2-carboxylic acid [3-(5-methyl-2-{1S-[methyl-(2-pyridin-2-yl-ethyl)-carbamoyl]-ethylamino}-4-oxo-4H-benzo[d][1,3]oxazin-6-ylcarbamoyl)-propyl]-amide] | – |
| 8600 nM | 400 nM | Cc1c(NC(=O)OC(C)(C)C)ccc2nc(NC3(C(=O)N(C)CCc4cccnc4)CCCC3)oc(=O)c12 [Compound No.126, (5-Methyl-2-{1-[methyl-(2-pyridin-3-yl-ethyl)-carbamoyl]-cyclopentylamino}-4-oxo-4H-benzo[d][1,3]oxazin-6-yl)-carbamic acid tert-butyl ester] | – |
| > 12500 nM | 300 nM | CCCCc1ccc(C(=O)NCCCC(=O)Nc2ccc3nc(NC(C)(C)C(=O)N(C)CCc4ccccn4)oc(=O)c3c2C)cc1 [Compound No.214, 4-Butyl-N-[3-(5-methyl-2-{1-methyl-1-[methyl-(2-pyridin-2-yl-ethyl)-carbamoyl]-ethylamino}-4-oxo-4H-benzo[d][1,3]oxazin-6-ylcarbamoyl)-propyl]-benzamide] | – |
| > 12500 nM | 300 nM | Cc1c(NC(=O)CCCNC(=O)c2cccs2)ccc2nc(NC(C)(C)C(=O)N(C)CCc3ccccn3)oc(=O)c12 [Compound No.212, Thiophene-2-carboxylic acid [3-(5-methyl-2-{1-methyl-1-[methyl-(2-pyridin-2-yl-ethyl)-carbamoyl]-ethylamino}-4-oxo-4H-benzo[d][1,3]oxazin-6-ylcarbamoyl)-propyl]-amide] | – |
| > 20000 nM | 900 nM | Cc1c(NC(=O)OC(C)(C)C)ccc2nc(NCCC(=O)N(C)CCc3ccccn3)oc(=O)c12 [Compound No.133, (5-Methyl-2-{2-[methyl-(2-pyridin-2-yl-ethyl)-carbamoyl]-ethylamino}-4-oxo-4H-benzo[d][1,3]oxazin-6-yl)-carbamic acid tert-butyl ester] | – |
| > 20000 nM | 400 nM | Cc1c(NC(=O)OC(C)(C)C)ccc2nc(N(C)CC(=O)N(C)CCc3ccccn3)oc(=O)c12 [Compound No.131, [5-Methyl-2-(methyl-{[methyl-(2-pyridin-2-yl-ethyl)-carbamoyl]-methyl}-amino)-4-oxo-4H-benzo[d][1,3]oxazin-6-yl]-carbamic acid tert-butyl ester] | – |
| > 20000 nM | 700 nM | Cc1c(NC(=O)CCNC(=O)OC(C)(C)C)ccc2nc(NCC(=O)N(C)CCc3ccccn3)oc(=O)c12 [Compound No.228, {2-[5-Methyl-2-({[methyl-(2-pyridin-2-yl-ethyl)-carbamoyl]-methyl}-amino)-4-oxo-4H-benzo[d][1,3]oxazin-6-ylcarbamoyl]-ethyl}-carbamic acid tert-butyl ester] | – |

Source: patent publication US20040116420A1 (priority 2001, published 2004)
